Publication PMC9404989, “Design and Evaluation of Short Bovine Lactoferrin-Derived Antimicrobial Peptides against Multidrug-Resistant Enterococcus faecium” (Antibiotics, 2022)
Where “and” joins values, the source holds several entries; their conditions need not be identical. Equal values may be shown once. No end group written: not given here.

How the values were obtained:
E. faecium strain C68 = test: Growth inhibition assay; assay type: cell-based, Enterococcus faecium; conditions: 32 µg/mL, OD600 over 4 h
Method: We cultivated overnight cultures of E. faecium strain C68 in BHI media. We inoculated the bacteria in a fresh BHI medium the next day to achieve the exponential phase and adjusted the bacterial density to 1 × 10^8 CFU/mL. We added 90 µL of this bacterial culture to each well of the microtiter plates (Cat No. 3595, Corning, New York, NY, USA) containing 10 µL of serially diluted 10× peptide solution. We monitored the bacterial growth on a SpectraMax i3x spectrophotometer (Molecular Devices, San Jose, CA, USA) by taking OD600 readings every 10 min for 4 h.

[1] = system: E. faecium strain C68 primary metabolites; test: Targeted LC-MS/MS metabolomics; assay type: cell-based, Enterococcus faecium; conditions: 5L at 2× MIC, 30 min vs control, n = 3
Method: For the metabolomics sample preparation, we used exponential cultures of E. faecium strain C68 grown in BHI media adjusted to OD600 = 0.5. We treated 10 mL of this bacterial culture with 2× MIC of peptide 5L or water (for bacterial control) for 30 min at 37 °C (n = 3, technical replicates). After that, we washed the bacteria 3× times with PBS and stored the pellet at −20 °C. At a later stage, to each cell pellet, we added 0.2 mL of 2-propanol: 100 mM of NH4HCO3, pH 7.4 (1:1 v/v), and sonicated the cells. For spiking, we added 20 µL of IS to each sample and vortexed them. Subsequently, we added 1.0 mL of methanol for deproteinization and cooled the mixture at −20 °C for 10 min. After centrifugation for 10 min at 14,000× g at 4 °C, we transferred the supernatants into glass tubes and dried them under a stream of nitrogen at 40 °C. Finally, we dissolved the residues in 100 µL of water and injected 3 µL of this solution into an LC-MS/MS 8060 system (Shimadzu Scientific Inc., Columbia, MD, USA), equipped with a DUIS source operated in both positive and negative electrospray ionization modes. For the liquid chromatographic analysis, we used the Nexera UPLC system (Shimadzu Scientific Inc., Columbia, MD, USA). We quantitated primary metabolites (~150) following an established LC-MS/MS method.

RRWLWRLRWLWR-NH2 [Peptide 6L]
growth inhibition (E. faecium strain C68): inhibited the maximum growth

RRWLWLRRWLWR-NH2 [Peptide 5L]
Fold change 2-Aminobutryc acid [1]: 0.480 fold
Fold change 4-Aminobutryc acid [1]: 4.319 fold
Fold change Adenine [1]: 0.311 fold
Fold change Adenylsuccinic acid [1]: 0.226 fold
Fold change Alanine [1]: 0.383 fold
Fold change Allantoin [1]: 2.67 fold
Fold change Arginosuccinic acid [1]: 0.204 fold
Fold change Aspartic acid [1]: 0.197 fold
Fold change Carbamoyl aspertate [1]: 2.212 fold
Fold change Citicoline [1]: 0.233 fold
Fold change Citric acid [1]: 0.244 fold
Fold change Cobalamine [1]: 2.285 fold
Fold change Cystathionine [1]: 0.369 fold
Fold change Cysteine [1]: 0.047 fold
Fold change Dopa [1]: 0.337 fold
Fold change Dopamine [1]: 3.107 fold
Fold change Fumaric acid [1]: 0.387 fold
Fold change Glutathione [1]: 0.376 fold
Fold change Guanine [1]: 0.130 fold
Fold change Guanosine [1]: 0.275 fold
Fold change Histidine [1]: 0.420 fold
Fold change Inosine [1]: 0.239 fold
Fold change Isocitric acid [1]: 0.237 fold
Fold change Isoleucine [1]: 0.458 fold
Fold change Kynureine [1]: 2.152 fold
Fold change Leucine [1]: 0.373 fold
Fold change Malic acid [1]: 0.392 fold
Fold change Methionine [1]: 0.175 fold
Fold change NAD [1]: 0.415 fold
Fold change Ornitine [1]: 0.378 fold
Fold change Oxidized glutathione [1]: 0.403 fold
Fold change Phenylalanine [1]: 0.423 fold
Fold change Putriscine [1]: 7.197 fold and 7 fold
Fold change S-Adenosylhomocysteine [1]: 0.267 fold
Fold change Serine [1]: 0.033 fold and 0.03 fold
Fold change Serotonin [1]: 2.886 fold
Fold change Succinic acid [1]: 0.204 fold
Fold change Symmetric dimethylarginine [1]: 2.347 fold
Fold change Threonine [1]: 0.384 fold
Fold change Thymidine [1]: 0.320 fold
Fold change Tryptophan [1]: 0.178 fold
Fold change Uridine [1]: 0.228 fold
Fold change Valine [1]: 0.433 fold
Fold change Xanthosine [1]: 0.315 fold
